# Assay results published in patent US9532949B2, “Intraperitoneally-administered nanocarriers that release their therapeutic load based on the inflammatory environment of cancers” (STC.UNM, priority 2011, dated 2017).
# Experiments:
# macrophages = test: Generation of ROS by activated macrophages (CellROX, flow cytometry); format: cell-based; conditions: PMA 1 μM for 30 minutes, 5 μM CellROX
# Method: H36.12j and RAW264.7 macrophages cell line was obtained from American Type Cell Culture (ATCC, Manassas, Va.). H36.12j cells were grown in Delbecco's Modified Eagles Medium (ATTC, Manassas, Va.) supplemented with 10% (v/v) Heat-inactivated iron bovine calf serum. Propagation was at 37° C. in 5% carbon dioxide. RAW264.7 cells were grown in Delbecco's Modified Eagles Medium (ATTC, Manassas, Va.) supplemented with 10% (v/v) fetal bovine serum. Propagation was at 37° C. in 10% carbon dioxide.
# Cells (0.2×10^6 in 500 uL media) were pipetted into each well of 24-well plate. Cells were stimulated with phorbol-12-myristate-13-acetate (PMA), (Sigma—Saint Louis, Mo.) at a final concentration of 1 μM for 30 minutes, followed by an incubation with 5 μM CellROX (Invitrogen) for 30 minutes to detect ROS. Fluorescence was then determined by flow cytometry.
# [1] = Photochemical ozone production catalyzed by amino acids in cell-free system (indigo carmine absorbance at 610 nm); conditions: for Ozone production: 1 mM amino acid or 5 mg/mL BSA, 10 μM 6-biopterin, UVA irradiation, 30 μM indigo carmine
# Method: FIG. 4. Ozone production catalyzed by amino acids in cell-free system in presence of 10 μM 6-biopterin and with UVA irradiation. Tubes also contained 30 μM indigo carmine which got converted by ozone to isatin sulfonic acid as detected by a decrease in absorbance at 610 nm. 1 mM of each amino acid and 5 mg/mL BSA in phosphate buffer were tested. Error bars represent standard deviation for three replicates.
# FIG. 5. Both UVA and 6BP are required to generate ozone by tryptophan. 1 mM Trp was tested. Error bars represent standard deviation for three replicates.
# FIG. 6. Dose response curve for generation of ozone by increasing concentrations of Trp. Tested concentrations were 0, 10, 20, 40, 80 & 160, 500, 1000 μM tryptophan. Higher concentrations 500 μM and 1 mM Trp are not shown as they gave similar results to 160 μM. Error bars represent standard deviation for three replicates.
# We successfully generated ozone (a molecule with the chemical signature of ozone) in a cell-free system by employing a photochemical source i.e. by adding a photosensitizer and exposing the tube contents to UVA irradiation. Our findings are summarized in this section. Four amino acids (tryptophan, methionine, cysteine, and histidine), but not other amino acids were reported to have the same catalytic activity as antibodies needed for water oxidation to produce ozone along with increasing bactericidal activity of neutrophils by employing a photochemical source. For our preliminary studies we used amino acids as the simplest mechanism to generate ozone. The photosensitizer we used is 6-biopterin (Sigma-Aldrich, St Louis, Mo.), and the UVA irradiation (315-400 nm) was provided by an ozone-free 1000W Xenon arc lamp as a solar simulator with blocking UVB radiation by appropriate filters (Oriel Instruments, Stratford, Conn.). The output of UVA radiation was confirmed and was measured by a UV meter (Model 3D, Solar Light, Glenside, Pa.) to be 6 mW/cm^2; we exposed the samples for 4 minutes. Ozone was detected through its conversion of indigo carmine (a blue dye with absorbance maximum at 610 nm) to isatin sulfonic acid (colorless) as we monitored this conversion by measuring absorbance at 610 nm as previously described.
# The platform we plan to use employs supported lipid bilayers (SLBs) on porous silica. We will test the disruption of SLBs by ozone employing the above described system to generate ozone photochemically by Trp. […] Disruption of the SLB by TX 100 caused release of the encapsulated fluorescein (14 fold increase in fluorescence by TX100 vs. untreated spheres).
# [2] = Disruption of supported lipid bilayer on porous silica spheres by Triton X-100, release of fluorescein; conditions: 5% (w/v) Triton X-100; 3 μm porous silica spheres, egg PC bilayer, supernatant fluorescence
# Method: FIG. 7. Disruption of lipid bilayer by Triton X-100. 3 μm silica spheres with 50 Å nominal pore size were incubated with 5 mM fluorescein then coated with a lipid bilayer made of egg phosphatidyl choline. Part of spheres was left with no treatment, and part was treated with Triton X-100 (TX 100) at a final concentration of 5% (w/v). Fluorescence of the supernatant after sedimenting the spheres was examined to check for release of fluorescein.
# The platform we plan to use employs supported lipid bilayers (SLBs) on porous silica. We will test the disruption of SLBs by ozone employing the above described system to generate ozone photochemically by Trp. For detecting disruption of the SLB we tested the proof-of-concept by adding Triton X-100 (TX 100) to spheres encapsulating fluorescein within 3 microns porous silica (Macherey-Nagel, Germany) followed by forming the SLB as previously described (FIG. 7). Disruption of the SLB by TX 100 caused release of the encapsulated fluorescein (14 fold increase in fluorescence by TX100 vs. untreated spheres).
# Description for OVCA cells: For all above experiments, DOX will be added directly to cells as a positive control after determining the optimal concentration of the drug to be used to cause at least 70% cytotoxicity. […] Negative controls include (1) absence of ROS either by not activating macrophages; and (2) addition of nanocarriers devoid of DOX but with generation of ROS. Data will be collected in triplicates and comparisons will be done using a non-parametric Welch's two sample t-test where any p-value below 0.05 will be considered statistically significant.
# However, for the nanocarriers, 72 hr may allow internalization of the nanocarriers and release of DOX regardless of presence of ROS.
compound,measurement,setting,value
"COc1cccc2c1C(=O)c1c(O)c3c(c(O)c1C2=O)C[C@@](O)(C(=O)CO)C[C@@H]3O[C@H]1C[C@H](N)[C@H](O)[C@H](C)O1 [DOX, doxorubicin]",Cytotoxicity (cell death),OVCA cells,96%
same,Cytotoxicity,"OVCA cells; 1 μM DOX, 24 hr incubation",~45%
"CCCCCCCCCCCCCC(=O)O[C@@H]1[C@@H](C)[C@@]2(O)[C@@H](C=C(CO)C[C@]3(O)C(=O)C(C)=C[C@@H]23)[C@@H]2C(C)(C)[C@]12OC(C)=O [PMA, phorbol-12-myristate-13-acetate]",Generation of ROS by macrophages,macrophages,ROS was generated
N[C@@H](Cc1c[nH]c2ccccc12)C(=O)O [tryptophan],"Conversion of singlet oxygen to ozone, dose response",[1]; 0-1000 μM tryptophan,dose-dependent manner
same,Ozone production,[1],photochemically generated ozone
same,Ozone production,[1]; listed as Tryptophan,highest level of ozone
same,Water oxidation (ozone generation) by tryptophan alone,"[1]; without 6-biopterin and UVA exposure, 1 mM Trp",not capable of water oxidation
Triton X-100 [TX 100],Increase in fluorescence (release of encapsulated fluorescein) vs. untreated spheres,[2],14 fold
